Test results from publication PMC11596599, “Structure Characterization of Four New Sesquiterpene Pyridine Alkaloids from Tripterygium wilfordii Hook. f. and Anti-Inflammatory Activity Evaluations” (Molecules, 2024).
Entries after “also recorded” stand apart in the source; their conditions may differ. Read-outs that look alike come from different tables or passages of the source. Blank lines part the entries; values can stand above or below the compound they belong to.

Tests used:
nitric oxide generation = settings: cited from earlier work; for IC50: LPS induced RAW264.7 cells ref 24, read-out: IC50 (nitric oxide inhibitory effects); for suppressed nitric oxide generation: LPS induced RAW264.7 cells, concentration of 5 μM ref 23
NF-κB pathway [1] = test: NF-κB luciferase reporter assay in LPS-induced HEK293/NF-κB-Luc cells; type: cell-based; settings: for inhibition at 100 µM / IC50: Homo sapiens; for inhibition at 100 µM: HEK293, 24 h, read-out: NF-κB Inhibitory Rates (%) (n = 3); for IC50: read-out: IC50 (NF-κB inhibition)
Method: Anti-inflammation bioassays were carried out using the HEK293/NF-κB-Luc cells, which were produced as the described procedure. The HEK293/NF-κB-Luc cells were inoculated into 48-well plates and cultured in DMEM supplemented with 10% fetal bovine serum (FBS) for 16 h. Following treatment with the tested compounds, the cells were simulated with 1 μg/mL of LPS for a duration of 24 h. Then, the cells were rinsed twice with phosphate-buffered saline (PBS, pH 7.4) prior to lysing with passive lysis buffer. Then, the inhibitory effects on NF-κB were analyzed using the luciferase assay system according to the manufacturer’s instructions. All the experiments were performed in triplicate.

[2] = tested on: cytokines (TNF-α, IL-1β, IL-8, IL-2, IL-4, and IFN-γ); design: method as in PMID 11374948; settings: 10 μg/mL, IL-8, IL-2, IL-4, IFN-γ, inhibitory rates reaching 100% in some cases ref 25; cited from earlier work
[3] = Cell viability by CCK-8 method; type: cell-based; settings: human; HEK293 cells, CCK-8, compounds at 100 μM, 48 h; read-out: Cell Viability (%) (n = 3)
Method: (§1) The effect of the test compounds on the viability of HEK293 cells was determined by the CCK-8 method. Briefly, HEK293 cells were inoculated into 96-well plates with 5 × 10^3 cells per well and incubated at 37 °C with 5% CO2 for 24 h. The cells were treated with test compounds and incubated for 48 h; then, 20 μL of the CCK-8 reagent was added into each well and incubated for another 2 h. The absorbance at 450 nm was measured with a microplate reader to further calculate the cell viability. All experiments were performed in triplicate.

HEK293 cells = test: Cell viability by CCK-8 method; type: cell-based; settings: concentration of 100 μM
Method: as §1

NF-κB pathway [4] = tested on: NF-κB pathway; design: method as in PMID 36364101; settings: LPS-induced HEK293/NF-κB-Luc cells; previous study ref 26; read-out: IC50 (inhibitory activity on the NF-κB pathway); cited from earlier work
[5] = compounds at 100 μM, 1 μg/mL LPS 24 h

Compound: CC(=O)OC[C@]12[C@H](OC(C)=O)C(=O)[C@@H]3[C@@H](OC(C)=O)[C@@]14O[C@@]3(C)COC(=O)c1cccnc1CCC(C)(OC(C)=O)C(=O)O[C@@H]([C@H](OC(=O)c1ccoc1)[C@@H]2OC(C)=O)[C@]4(C)O (stereo partly shown) [9′-O-acetyl-7-deacetoxy-7-oxowilfortrine]
- IC50 (nitric oxide generation): 2.59 ± 3.59 µM

Compound: Cc1ccc(NCCCc2ccccc2)c(N)c1 [JSH23, reference compound]
- NF-κB Inhibitory Rates (%) (n = 3) (NF-κB pathway [1]; [5]): 74.56 ± 1.83%

Compound: CC(=O)OC[C@]12[C@H](OC(C)=O)[C@H](OC(C)=O)[C@@H]3[C@@H](OC(=O)c4ccccc4)[C@@]14O[C@@]3(C)COC(=O)c1cccnc1C(C)C(C)C(=O)O[C@@H]([C@H](OC(C)=O)[C@@H]2OC(=O)c1ccccc1)[C@]4(C)O (stereo partly shown) [ebenifoline E-11]
- inhibitory effects on the production of cytokines (in words) [2]: significant inhibitory effects

Compound: CC(=O)OCC12C(OC(C)=O)C(=O)C3C(OC(C)=O)C14OC3(C)COC(=O)c1cccnc1CCC(C)(OC(=O)c1ccoc1)C(=O)OC(C(O)C2OC(C)=O)C4(C)O (stereo not shown) [tripterygiumine S]
- IC50 (nitric oxide generation): 23.8 ± 4.38 µM

Compound: CC(=O)OCC12C(OC(C)=O)C(OC(C)=O)C3C(OC(C)=O)C14OC3(C)COC(=O)c1cnccc1CCC(C)(O)C(=O)OC(C(OC(=O)c1ccco1)C2OC(C)=O)C4(C)O (stereo not shown) [Compound 2, wilfordinine H]
- viability at 48 h, 100 µM [3]: 94.2 ± 5.75%
- inhibition at 100 µM (NF-κB pathway [1]; [5]): 33.9 ± 2.06%

- IC50 (NF-κB pathway [1]): 9.05 µM
Compound: CC(=O)OC[C@]12[C@H](OC(C)=O)[C@H](OC(C)=O)[C@@H]3[C@@H](OC(C)=O)[C@@]14O[C@@]3(C)COC(=O)c1cnccc1C(C)C(C)C(=O)O[C@@H]([C@H](O)[C@@H]2OC(C)=O)[C@]4(C)O (stereo partly shown) [Compound 6, wilfordinine A]
- influence on cell viability (in words) (HEK293 cells): no influence on the cell viability; also recorded: no cytotoxicity
- viability at 48 h, 100 µM [3]: 92.4 ± 7.62%
- inhibition at 100 µM (NF-κB pathway [1]; [5]): > 45%
- suppressed nitric oxide generation (nitric oxide generation): 59.0%

Compound: CC(=O)OC[C@]12[C@H](OC(C)=O)[C@H](OC(C)=O)[C@@H]3[C@@H](OC(C)=O)[C@@]14O[C@@]3(C)COC(=O)c1cccnc1CCC(C)C(=O)O[C@@H]([C@H](OC(=O)c1ccccc1)[C@@H]2OC(C)=O)[C@]4(C)O (stereo partly shown) [wilforine]
- IC50 (NF-κB pathway [4]): 15.7 µM

Compound: CC(=O)OCC12C(OC(C)=O)C(OC(C)=O)C3C(OC(C)=O)C14OC3(C)COC(=O)c1cnccc1C(C)C(C)(O)C(=O)OC(C(OC(C)=O)C2OC(C)=O)C4(C)O (stereo not shown) [Compound 7, wilfordinine B]
- viability at 48 h, 100 µM [3]: 95 ± 36.2%
- inhibition at 100 µM (NF-κB pathway [1]; [5]): 32.1 ± 5.7%

Compound: CC(=O)OC[C@]12[C@H](OC(C)=O)[C@H](OC(C)=O)[C@@H]3[C@@H](OC(C)=O)[C@@]14O[C@@]3(C)COC(=O)c1cccnc1CCC(C)C(=O)O[C@@H]([C@H](OC(C)=O)[C@@H]2OC(C)=O)[C@]4(C)O (stereo partly shown) [euonine]
- suppressed nitric oxide generation (nitric oxide generation): 54.7%

Compound: CC(=O)OC[C@]12[C@H](OC(C)=O)[C@H](OC(C)=O)[C@@H]3[C@@H](OC(C)=O)[C@@]14O[C@@]3(C)COC(=O)c1cccnc1CCC(C)(O)C(=O)O[C@@H]([C@H](O)[C@@H]2OC(C)=O)[C@@]4(C)O (stereo partly shown) [tripfordine A]
- IC50 (NF-κB pathway [4]): 0.74 µM

Compound: wilfordatine E
- IC50 (NF-κB pathway [4]): 8.75 µM

Compound: CC(=O)OCC12C(OC(C)=O)C(O)C3OC(=O)C(C)C(C)c4ccncc4C(=O)OCC4(C)OC1(C(O)C4C(OC(C)=O)C2OC(C)=O)C3(C)O (stereo not drawn) [Compound 4, 1β,7β,8β,11-tetraacetoxy-1β,4α,5α-trihydroxy-3α,15-[2′,3′-dimethyl-3′-(3″-carboxy-4″-pyridyl)propanic acid] dicarbolactone dihydro-β-agarofuran]
- influence on cell viability (in words) (HEK293 cells): no influence on the cell viability; also recorded: no cytotoxicity
- viability at 48 h, 100 µM [3]: 100 ± 2.55%
- inhibition at 100 µM (NF-κB pathway [1]; [5]): > 45%
- IC50 (NF-κB pathway [1]): 1.64 µM

Compound: CC(=O)OCC12C(OC(C)=O)C(OC(C)=O)C3C(OC(C)=O)C14OC3(C)COC(=O)c1cnccc1C(C)C(C)C(=O)OC(C(OC(C)=O)C2OC(C)=O)C4(C)O (stereo not shown) [Compound 8, peritassine A]
- viability at 48 h, 100 µM [3]: 93.9 ± 6.1%
- inhibition at 100 µM (NF-κB pathway [1]; [5]): 19.1 ± 3.2%
- suppressed nitric oxide generation (nitric oxide generation): 8.2%

Compound: CC(=O)OC[C@]12[C@H](OC(C)=O)[C@H](OC(C)=O)[C@@H]3[C@@H](OC(=O)c4ccccc4)[C@@]14O[C@@]3(C)COC(=O)c1cccnc1C(C)C(C)C(=O)O[C@@H]([C@H](OC(C)=O)[C@@H]2OC(C)=O)[C@]4(C)O (stereo partly shown) [congorinine E-1]
- inhibitory effects on the production of cytokines (in words) [2]: significant inhibitory effects
